Reference: patent publication US9340577B2, “HLA binding motifs and peptides and their uses” (priority 1992, dated 2016)
Read-outs that look alike come from different tables or passages of the source. No end group written: not given here.

Key:
Assay in all cases: biochemical
[1] = molecular target: DRB1*0301 (Homo sapiens, UniProt P01903+P01911, A100K/A102G/A103R/A169T/F55Y/I96L/K41T/L162R/M171V/P40S/Q125H/Q178H/Q39Y/R42S/S66N/T106N/T262R/W38E/Y61H); type: binding
[2] = molecular target: DRB1*1501 (Homo sapiens, UniProt P01903+P01911); type: binding
[3] = molecular target: DRB3*0101 (Homo sapiens, UniProt P01903+P79483); type: binding
[4] = molecular target: DRB1*1101 (Homo sapiens, UniProt P01903+P01911, A100R/A169T/A87E/I96F/K41T/L162R/M171V/P40S/Q125H/Q178H/Q39Y/Q99D/R42S/S66Y/T262R/V115G/W38E)
DRB1*1101, sequence (P01903 26-254 limits assumed, other chains not shown): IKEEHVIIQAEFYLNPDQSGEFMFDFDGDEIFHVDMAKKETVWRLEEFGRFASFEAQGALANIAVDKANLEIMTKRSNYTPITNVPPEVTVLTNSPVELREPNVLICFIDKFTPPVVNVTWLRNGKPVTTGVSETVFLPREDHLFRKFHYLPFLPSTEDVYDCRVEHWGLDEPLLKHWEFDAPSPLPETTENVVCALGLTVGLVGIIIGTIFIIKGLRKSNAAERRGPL

[5] = molecular target: DR1 (DRB1*0101) (Homo sapiens, UniProt P01903+P01911, A100R/D57E/F55L/F60I/F76Y/I96L/L162R/M171V/P40L/Q125E/R42F/V115G/Y59C); type: binding
[6] = molecular target: DR4w4 (DRB1*0401) (Homo sapiens, UniProt P01903+P01911, A100K/A169T/F76Y/I96L/K127E/L162R/M171V/N62H/P40V/Q125Y/R42H/S133A/S149N/S66Y/V115G/V209L/W38E); type: binding
[7] = molecular target: DR7 (DRB1*0701) (Homo sapiens, UniProt P01903+P01911, A100R/A102G/A103Q/D57E/D86V/E43K/F76Y/K127E/L162R/M171V/P40G/Q125H/Q99D/R33Q/R42Y/R54Q/S133A/S66F/T210M/V115G/Y107V/Y59L/Y89S); type: binding
[8] = molecular target: DRB1*0802 (Homo sapiens, UniProt P01903+P01911, A100R/A103L/A169T/F76Y/H45Y/I96F/K41T/L162R/M171V/P40S/Q125H/Q178H/Q39Y/Q99D/R218S/R42G/S66Y/V115G/W38E); type: binding
[9] = molecular target: DRB1*0901 (Homo sapiens, UniProt P01903+P01911, A100R/A103E/D57H/D86V/F55Y/F60I/F76Y/I96F/K127E/L162R/M171V/P40D/Q125H/Q99R/R33Q/R42F/S133A/S66N/T210M/V115G/W38K/Y107V/Y59G/Y89S); type: binding
[10] = molecular target: DRB4*0101 (Homo sapiens, UniProt P01903+P13762, G164S); type: binding
[11] = molecular target: DRB5*0101 (Homo sapiens, UniProt P01903+Q30154)

DRB1*0301, sequence (P01903 26-254 limits assumed, other chains not shown): as above

Row | Compound | IC50 [1] | IC50 [2] | IC50 [3] | IC50 ([4]; […]) | IC50 [5] | IC50 [6] | IC50 [7] | IC50 [8] | IC50 [9] | IC50 [10] | IC50 [4] | IC50 [11] | IC50 ([4]; Binding affinity DRB1 *1101) | IC50 ([11]; Binding affinity DRB5 *0101)
1 | QKGRGYRGQHQAHSLERVCH [Peptide F025.05] | > 20 µM | > 20 µM | > 20 µM | > 20 µM |  |  |  |  |  |  |  |  |  | 
2 | CC[C@H](C)[C@H](NC(=O)[C@H](C)NC(=O)[C@@H](NC(=O)[C@@H](NC(=O)[C@H](CC(N)=O)NC(=O)[C@H](CC(C)C)NC(=O)[C@H](Cc1ccccc1)NC(=O)[C@H](CCCCN)NC(=O)[C@@H](NC(=O)[C@H](CCCNC(=N)N)NC(=O)[C@H](CCC(N)=O)NC(=O)[C@H](CCCCN)NC(=O)[C@@H](N)CCC(=O)O)[C@@H](C)O)[C@@H](C)O)C(C)C)C(=O)N1CCC[C@H]1C(=O)N[C@@H](CC(=O)O)C(=O)O [Peptide 1601.19] | 11.8 µM | > 20 µM | > 20 µM |  | 0.061 µM | 4500 nM | 123 nM | > 20 µM | 0.284 µM | 6.45 µM | > 20 µM | > 20 µM |  | 
3 | VHEGIRTYFVQFKDD [Peptide 1601.05] | 9.33 µM | 0.038 µM | 9.92 µM |  | 9.28 µM |  | 5730 nM | 12.2 µM | 5.86 µM | 1.8 µM |  |  | > 20 µM | > 20 µM
4 | AATYNFAVLKLMGRGTKF [Peptide F025.08] | > 20 µM |  | > 20 µM |  |  |  |  |  |  |  |  |  |  | 
5 | CSCC[C@H](NC(=O)CNC(=O)CNC(=O)[C@H](CCCNC(=N)N)NC(=O)[C@@H](NC(=O)[C@H](CCC(N)=O)NC(=O)[C@H](C)NC(=O)[C@@H](NC(=O)[C@@H](NC(=O)[C@H](CC(C)C)NC(=O)[C@H](Cc1c[nH]cn1)NC(=O)[C@H](Cc1ccc(O)cc1)NC(=O)[C@@H](N)CCCCN)[C@@H](C)O)C(C)C)C(C)C)C(=O)N[C@H](C(=O)N[C@@H](Cc1ccccc1)C(=O)O)C(C)C [Peptide 68.0120] | > 20 µM |  | > 20 µM |  |  |  |  |  |  |  |  |  |  | 
6 | VVTIPNSVQISVGYM [Peptide 1601.41] | > 20 µM | 3.44 µM | > 20 µM |  |  | 835 nM | 71 nM |  |  |  |  |  | 4.22 µM | > 20 µM
7 | CC[C@H](C)[C@H](NC(=O)CNC(=O)[C@H](Cc1ccc(O)cc1)NC(=O)[C@H](CC(C)C)NC(=O)[C@H](CO)NC(=O)[C@H](CC(C)C)NC(=O)[C@H](CC(C)C)NC(=O)[C@H](CO)NC(=O)[C@H](CC(C)C)NC(=O)[C@H](CCC(=O)O)NC(=O)[C@H](CO)NC(=O)[C@@H](N)CC(C)C)C(=O)N[C@@H](Cc1c[nH]cn1)C(=O)N[C@@H](CCCCN)C(=O)N[C@@H](CCC(N)=O)C(=O)O [Peptide 68.0044] | > 20 µM |  | > 20 µM |  |  |  | > 20000 nM |  |  |  |  |  |  | 
8 | CC[C@H](C)[C@H](N)C(=O)N[C@@H](CC(C)C)C(=O)N[C@@H](CC(C)C)C(=O)N[C@@H](Cc1c[nH]c2ccccc12)C(=O)N[C@@H](CCC(N)=O)C(=O)N1CCC[C@H]1C(=O)N[C@H](C(=O)N1CCC[C@H]1C(=O)N[C@H](C(=O)N[C@@H](Cc1c[nH]cn1)C(=O)N[C@H](C(=O)N[C@H](C(=O)N1CCC[C@H]1C(=O)N[C@@H](CC(C)C)C(=O)N[C@@H](CO)C(=O)O)C(C)C)[C@@H](C)O)C(C)C)[C@@H](C)CC [Peptide 68.0038] | > 20 µM |  | > 20 µM |  |  |  |  |  |  |  |  |  |  | > 20 µM
9 | CC[C@H](C)[C@H](NC(=O)[C@@H](N)CCCCN)C(=O)N[C@@H](Cc1ccccc1)C(=O)NCC(=O)N[C@@H](CO)C(=O)N[C@@H](CC(C)C)C(=O)N[C@@H](C)C(=O)N[C@@H](Cc1ccccc1)C(=O)N[C@@H](CC(C)C)C(=O)N1CCC[C@H]1C(=O)N[C@@H](CCC(=O)O)C(=O)N[C@@H](CO)C(=O)N[C@@H](Cc1ccccc1)C(=O)N[C@@H](CC(=O)O)C(=O)NCC(=O)N[C@@H](CC(=O)O)C(=O)N1CCC[C@H]1C(=O)N[C@@H](C)C(=O)O [Peptide 1533.07] | > 20 µM |  | > 20 µM |  |  |  |  | > 20 µM |  |  |  |  | > 20 µM | 
